Structures can show the parent of a compound that is named as a salt.
Key:
[1] = Prediction of human clearance and exposure by scaling of IV PK data from mouse, rat and dog against body weight
Description: Pharmacokinetic parameters seen in the Phase 1a study were compared to exposure and clearance data collected in animal studies to determine if consistent parameters are observed across species (detailed ADME and PK assessment in non-human species will be described in a manuscript in preparation). Nonclinical PK and excretion studies of UV-4 as the hydrochloride salt and UV-4 free base were conducted using the oral and IV routes of administration as single doses in mice, rats, ferrets, and dogs. […] Absorption was rapid following oral administration in each nonclinical species, in alignment with the median Tmax of 0.5 to 1 hour across all dose groups in the Phase 1a study.

[2] = design: method as in Investigator’s Brochure (IB); conditions: rat, average; ref Investigator’s Brochure (IB); cited from earlier work
CYP2C19 = system: CYP2C19; design: method as in Investigator’s Brochure (IB); conditions: in vitro; ref Investigator’s Brochure (IB); cited from earlier work
CYP2E1 = system: CYP2E1; design: method as in Investigator’s Brochure (IB); conditions: in vitro; ref Investigator’s Brochure (IB); cited from earlier work
CYP2B6 = system: CYP2B6; design: method as in Investigator’s Brochure (IB); conditions: ref Investigator’s Brochure (IB), cited from earlier work
[3] = Seven-day repeat dose non-GLP study in rats (UV4-COV-0045); type: in vivo, rat; conditions: for a 60 kg human
Description: The seven-day repeat dose study in rats was conducted at 10 mg/kg/dose TID (30 mg/kg/day), 25 mg/kg/dose TID (75 mg/kg/day), and 60 mg/kg/dose TID (180 mg/kg/day).
At 10 mg/kg/dose, mild to moderate clinical hematology and clinical chemistry changes and histopathological changes in the gastrointestinal tract (GI) similar to dogs and mice were observed; therefore this dose exceeded the no observed effect level (NOEL). At […]
60 mg/kg/dose there were similar findings to mice and dogs but a unique finding of possible […]
skin, paws and/or feet. These findings appeared within 120 minutes of treatment with the first or second daily dose 60 mg/kg/dose (TID) on Day 1 or Day 2. This response was transient and self-limiting, and was not observed after Day 2 in either the single or repeated doses. […]
(§1) The inverted AST/ALT ratio […]
(§2) and lymphocyte depletion were reversible. Thymus weight decrease in females was reversible but thymus weight decreases in males were not. However, because the apparent […]
microscopic thymus findings, thymus weight differences at the recovery necropsy were considered not toxicologically important. In mice at 25 mg/kg/dose (75 mg/kg/day) there were decreased thymus weights (males), follicular epithelium vacuolation in the thyroid, and lymphoid depletion of the thymus (males). […]
Daily exposure [calculated as 3 x AUC(0-8)] is estimated at 32,820 ng•h/mL. […]

[4] = 14-day GLP toxicology study in mice (UV4-COV-036); conditions: Crl:CD1(ICR), mouse, in vivo, 300 mg/kg/day, read-out: Daily exposure at NOAEL [3 x AUC(0-8)]
Description: Fourteen-day studies were conducted in mice and dogs. […]
as §1, §2
microscopic thymus findings, thymus weight differences at the recovery necropsy were considered not toxicologically important. In mice at 25 mg/kg/dose (75 mg/kg/day) there were decreased thymus weights (males), follicular epithelium vacuolation in the thyroid, and lymphoid depletion of the thymus (males). All findings were reversible but a NOEL was not present at this dose level. At the no NOAEL of 300 mg/kg/day, there were clinical hematology, chemistry, and anatomic pathology findings similar to those observed in the dogs. All findings were reversible.
Based on these observations, the NOAEL for UV-4B following 14 days of TID administration in mice is considered to be 300 mg/kg/day. This dose level corresponded to Day 14 mean Cmax […]
ng•h/mL, respectively. Daily exposure at NOAEL [calculated as 3 x AUC(0-8)] is estimated at 163,305 ng•h/mL. In dogs, the NOAEL following 14 days of TID administration is considered to be 30 mg/kg/day. At the end of the dosing phase, this dose level corresponded to average […]
Daily exposure [calculated as 3 x AUC(0-8)] is estimated at 32,820 ng•h/mL.
This material is the property of the Unither Virology. […]

[5] = design: method as in Investigator’s Brochure (IB); conditions: mice, 1000 mg/kg single dose; ref Investigator’s Brochure (IB); cited from earlier work
[6] = design: method as in Investigator’s Brochure (IB); conditions: in vivo; ref Investigator’s Brochure (IB); cited from earlier work
[7] = compared with UV-4; cited from earlier work
[8] = system: human ether-a-go-go-related gene potassium channel; conditions: at UV-4 concentration more than 20-fold higher than expected at the planned ceiling dose in humans; ref Investigator’s Brochure (IB); cited from earlier work
[9] = cited from earlier work
[10] = in vitro; ref Investigator’s Brochure (IB); cited from earlier work

COCCCCCCCCCN1C[C@H](O)[C@@H](O)[C@H](O)[C@H]1CO [UV-4, N-(9’-methoxynonyl)-1-deoxynojirimycin]
clearance ([1]; human, simple scaling of systemic clearance against body weight, IV PK data of mouse, rat and dog, read-out: Human systemic clearance, estimated (converted)): 560 mL/min | Total exposure (AUC(0-inf)), predicted ([1]; starting dose of 3 mg, from scaled clearance): 0.089 µg·h/mL | Bioavailability [2]: ≥ 99% | Direct inhibition of CYP2C19 (CYP2C19): No clinically relevant direct inhibition | Direct inhibition of CYP2E1 (CYP2E1): No clinically relevant direct inhibition | Estimated IC50 (CYP2B6; CYP2B6): > 191 µg/mL | IC50 (CYP2B6; CYP2B6, read-out: Estimated IC50): > 600 µM | Direct inhibition of CYP2B6 (CYP2B6; in vitro): weak direct inhibition

COCCCCCCCCCN1C[C@H](O)[C@@H](O)[C@H](O)[C@H]1CO [UV-4B, N-(9’-methoxynonyl)-1-deoxynojirimycin hydrochloride]
HED of 60 mg/kg/dose in rats [3]: 580 mg | AUC(0-t) [4]: 163 µg·h/mL | Respiratory function [5]: no adverse treatment-related effects | Mouse bone marrow micronucleus [6]: not found to be mutagenic or clastogenic | Solubility of the hydrochloride salt [7]: higher solubility | Inhibition of hERG potassium channel [8]: did not inhibit | Vacuoles in kidney (F) ([9]; rat, 25 TID mg/kg): P(F) | Swollen paws/legs and perioral appearance and red skin, paws and/or feet ([9]; rat, 60 TID mg/kg, second symbol (later day)): − | Decreased lymphocytes in mesenteric lymph node (F) ([9]; rat, 60 TID mg/kg): P(F) | Possible histamine-like in-life clinical signs ([9]; rats, 60 mg/kg/dose TID, Day 1 or Day 2, transient, ref Investigator’s Brochure (IB)): swollen paws/legs and perioral appearance | No observed effect level (NOEL) ([9]; rats, TID for seven days, lowest dose exceeded the NOEL, ref Investigator’s Brochure (IB)): < 10 mg/kg/dose | Time to appearance of histamine-like signs after treatment ([9]; rats, first or second daily dose of 60 mg/kg/dose (TID), ref Investigator’s Brochure (IB)): ≤ 120 min | Finding at 25 mg/kg/dose (TID) ([9]; rats, seven days, ref Investigator’s Brochure (IB)): dose-limiting erosions/ulcerations in the stomach | Mutagenicity, Ames bacterial reverse mutation (two assays) [10]: not found to be mutagenic or clastogenic
